Measurements: the supplement of paper PMC10307832

Tests used:
Assay in all cases: relative viability (nuclei count vs DMSO), 5 days (fraction); higher = more cells survive
PAC-1 + Tozasertib = compound: C=CCc1cccc(/C=N/NC(=O)CN2CCN(Cc3ccccc3)CC2)c1O [PAC-1] + Cc1cc(Nc2cc(N3CCN(C)CC3)nc(Sc3ccc(NC(=O)C4CC4)cc3)n2)n[nH]1 [Tozasertib] (partner 0.1 µM)
Procedure, shortened: (§1)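 Dosing by pin tool came one day after lung cancer cell lines were seeded in 1536-well plates, using either one drug or a fixed anchor-drug dose plus five library-drug doses (not always all listed) in √10 steps. After 5 days, nuclei were counted on 4× images. Relative viability is treated-well nuclei count divided by vehicle-well nuclei count, and values are medians of duplicate plates.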

Ibrutinib + Phenformin = compound: C=CC(=O)N1CCC[C@@H](n2nc(-c3ccc(Oc4ccccc4)cc3)c3c(N)ncnc32)C1 [Ibrutinib] + N=C(N)NC(=N)NCCc1ccccc1 [Phenformin] (partner 250 µM)
Procedure, shortened: as §1

Ibrutinib + Foretinib = compound: C=CC(=O)N1CCC[C@@H](n2nc(-c3ccc(Oc4ccccc4)cc3)c3c(N)ncnc32)C1 [Ibrutinib] + COc1cc2c(Oc3ccc(NC(=O)C4(C(=O)Nc5ccc(F)cc5)CC4)cc3F)ccnc2cc1OCCCN1CCOCC1 [Foretinib] (partner 0.25 µM)
Procedure, shortened: as §1

BMX-IN-1 + Phenformin = compound: C=CC(=O)Nc1cc(-n2c(=O)ccc3cnc4ccc(-c5ccc(NS(C)(=O)=O)cc5)cc4c32)ccc1C [BMX-IN-1] + N=C(N)NC(=N)NCCc1ccccc1 [Phenformin] (partner 250 µM)
Procedure, shortened: as §1

In the case of NCI-H1623, the relative viability (PAC-1 + Tozasertib; first compound 0.02 µM) was 0.42, the relative viability (PAC-1 + Tozasertib; first compound 0.06325 µM) was 0.43 and the relative viability (PAC-1 + Tozasertib; first compound 0.2 µM) was 0.427. The relative viability (PAC-1 + Tozasertib; first compound 2 µM) was 0.482, the relative viability (Ibrutinib + Phenformin; first compound 0.005 µM) was 0.571 and the relative viability (Ibrutinib + Phenformin; first compound 0.01581 µM) was 0.532. It also gave a relative viability (Ibrutinib + Phenformin; first compound 0.05 µM) of 0.509, a relative viability (Ibrutinib + Phenformin; first compound 0.1581 µM) of 0.347 and a relative viability (Ibrutinib + Phenformin; first compound 0.5 µM) of 0.27. For the same cell line, the relative viability (Ibrutinib + Foretinib; first compound 0.005 µM) was 0.8, the relative viability (Ibrutinib + Foretinib; first compound 0.01581 µM) was 0.701 and the relative viability (Ibrutinib + Foretinib; first compound 0.05 µM) was 0.568. It also gave a relative viability (Ibrutinib + Foretinib; first compound 0.1581 µM) of 0.692, a relative viability (Ibrutinib + Foretinib; first compound 0.5 µM) of 0.289 and a relative viability (BMX-IN-1 + Phenformin; first compound 0.02 µM) of 0.527. The relative viability (BMX-IN-1 + Phenformin; first compound 0.2 µM) was 0.676, the relative viability (BMX-IN-1 + Phenformin; first compound 0.6325 µM) was 0.585 and the relative viability (BMX-IN-1 + Phenformin; first compound 2 µM) was 0.601.
In the case of NCI-H1650, the relative viability (PAC-1 + Tozasertib; first compound 0.02 µM) was 0.361, the relative viability (PAC-1 + Tozasertib; first compound 0.06325 µM) was 0.393 and the relative viability (PAC-1 + Tozasertib; first compound 0.2 µM) was 0.522. The relative viability (PAC-1 + Tozasertib; first compound 2 µM) was 0.375, the relative viability (Ibrutinib + Phenformin; first compound 0.005 µM) was 0.403 and the relative viability (Ibrutinib + Phenformin; first compound 0.01581 µM) was 0.358. The relative viability (Ibrutinib + Phenformin; first compound 0.05 µM) was 0.353, the relative viability (Ibrutinib + Phenformin; first compound 0.1581 µM) was 0.348 and the relative viability (Ibrutinib + Phenformin; first compound 0.5 µM) was 0.287. The relative viability (Ibrutinib + Foretinib; first compound 0.005 µM) was 1.01, the relative viability (Ibrutinib + Foretinib; first compound 0.01581 µM) was 0.793 and the relative viability (Ibrutinib + Foretinib; first compound 0.05 µM) was 0.934. It also gave a relative viability (Ibrutinib + Foretinib; first compound 0.5 µM) of 0.732, a relative viability (BMX-IN-1 + Phenformin; first compound 0.02 µM) of 0.493 and a relative viability (BMX-IN-1 + Phenformin; first compound 0.2 µM) of 0.44. It also gave a relative viability (BMX-IN-1 + Phenformin; first compound 0.6325 µM) of 0.446 and a relative viability (BMX-IN-1 + Phenformin; first compound 2 µM) of 0.413.
NCI-H1651 showed a relative viability (PAC-1 + Tozasertib; first compound 0.02 µM) of 0.615, a relative viability (PAC-1 + Tozasertib; first compound 0.06325 µM) of 0.786 and a relative viability (PAC-1 + Tozasertib; first compound 0.2 µM) of 0.631. For the same cell line, the relative viability (PAC-1 + Tozasertib; first compound 2 µM) was 0.65, the relative viability (Ibrutinib + Phenformin; first compound 0.005 µM) was 0.34 and the relative viability (Ibrutinib + Phenformin; first compound 0.01581 µM) was 0.262. It also gave a relative viability (Ibrutinib + Phenformin; first compound 0.05 µM) of 0.295, a relative viability (Ibrutinib + Phenformin; first compound 0.1581 µM) of 0.308 and a relative viability (Ibrutinib + Phenformin; first compound 0.5 µM) of 0.252. It also gave a relative viability (Ibrutinib + Foretinib; first compound 0.005 µM) of 0.928, a relative viability (Ibrutinib + Foretinib; first compound 0.01581 µM) of 0.931 and a relative viability (Ibrutinib + Foretinib; first compound 0.05 µM) of 0.896. For the same cell line, the relative viability (Ibrutinib + Foretinib; first compound 0.1581 µM) was 0.882, the relative viability (Ibrutinib + Foretinib; first compound 0.5 µM) was 0.615 and the relative viability (BMX-IN-1 + Phenformin; first compound 0.02 µM) was 0.292. It also gave a relative viability (BMX-IN-1 + Phenformin; first compound 0.2 µM) of 0.451, a relative viability (BMX-IN-1 + Phenformin; first compound 0.6325 µM) of 0.394 and a relative viability (BMX-IN-1 + Phenformin; first compound 2 µM) of 0.363.
Work on NCI-H1666 yielded a relative viability (PAC-1 + Tozasertib; first compound 0.02 µM) of 0.553, a relative viability (PAC-1 + Tozasertib; first compound 0.06325 µM) of 0.605 and a relative viability (PAC-1 + Tozasertib; first compound 0.2 µM) of 0.615. It also gave a relative viability (PAC-1 + Tozasertib; first compound 2 µM) of 0.544, a relative viability (Ibrutinib + Phenformin; first compound 0.005 µM) of 0.597 and a relative viability (Ibrutinib + Phenformin; first compound 0.01581 µM) of 0.59. It also gave a relative viability (Ibrutinib + Phenformin; first compound 0.05 µM) of 0.547, a relative viability (Ibrutinib + Phenformin; first compound 0.1581 µM) of 0.561 and a relative viability (Ibrutinib + Phenformin; first compound 0.5 µM) of 0.571. The relative viability (Ibrutinib + Foretinib; first compound 0.005 µM) was 0.981, the relative viability (Ibrutinib + Foretinib; first compound 0.01581 µM) was 0.919 and the relative viability (Ibrutinib + Foretinib; first compound 0.05 µM) was 0.919. It also gave a relative viability (Ibrutinib + Foretinib; first compound 0.1581 µM) of 0.988, a relative viability (Ibrutinib + Foretinib; first compound 0.5 µM) of 0.74 and a relative viability (BMX-IN-1 + Phenformin; first compound 0.02 µM) of 0.572. The relative viability (BMX-IN-1 + Phenformin; first compound 0.2 µM) was 0.581, the relative viability (BMX-IN-1 + Phenformin; first compound 0.6325 µM) was 0.597 and the relative viability (BMX-IN-1 + Phenformin; first compound 2 µM) was 0.607.
